Calls of active or inactive are those of the source. No rule for the calls is given here.
Tested on: rodent carcinogenicity bioassays, tumor incidence
Assay: CCRIS carcinogenicity studies
In short: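 NCI-built, expert-reviewed records of carcinogenicity and related test outcomes (mutagenicity, tumor promotion/inhibition) compiled from published and report sources, historical span 1985-2011, not updated.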

Compound: CN(C)CCN(Cc1ccsc1)c1ccccn1
- carcinogen call (Species: RAT, Strain/Sex: SPRAGUE-DAWLEY/FEMALE, Route: ORAL, Dose: 0, 500, 1000 PPM IN DRINKING WATER 5D/WK FOR LIFE (STUDY DURATION: 572-731 D), Dose: 0, 500, 1000 PPM IN DRINKING WATER 5D/WK FOR LIFE (STUDY DURATION: 572-731 D)): inactive; negative
- carcinogen call (Species: RAT, Strain/Sex: SPRAGUE-DAWLEY/MALE, Route: ORAL, Dose: 0, 500, 1000 PPM IN DRINKING WATER 5D/WK FOR LIFE (STUDY DURATION: 515-576 D), Dose: 0, 500, 1000 PPM IN DRINKING WATER 5D/WK FOR LIFE (STUDY DURATION: 515-576 D)): inactive; negative

Compound: CCC1=C(C)CN(C(=O)NCCc2ccc(S(=O)(=O)NC(=O)NC3CCC(C)CC3)cc2)C1=O (configuration not stated)
- carcinogen call (Species: DOG, Strain/Sex: BEAGLE/FEMALE, Route: ORAL, Dose: 0, 0.8, 16, 320 MG/KG BW IN GELATIN CAPSULE 1/D 7 D/WK FOR 12 MO (STUDY DURATION: 15 MO), Dose: 0, 0.8, 16, 320 MG/KG BW IN GELATIN CAPSULE 1/D 7 D/WK FOR 12 MO (STUDY DURATION: 15 MO)): inactive; negative
- carcinogen call (Species: DOG, Strain/Sex: BEAGLE/MALE, Route: ORAL, Dose: 0, 0.8, 16, 320 MG/KG BW IN GELATIN CAPSULE 1/D 7 D/WK FOR 12 MO (STUDY DURATION: 13 MO), Dose: 0, 0.8, 16, 320 MG/KG BW IN GELATIN CAPSULE 1/D 7 D/WK FOR 12 MO (STUDY DURATION: 13 MO)): inactive; negative
- carcinogen call (Species: RAT, Strain/Sex: WISTAR/FEMALE, Route: ORAL, Dose: 0, 20, 1000, 50000 PPM IN DIET FOR 12 MO (STUDY DURATION: 13 MO), Dose: 0, 20, 1000, 50000 PPM IN DIET FOR 12 MO (STUDY DURATION: 13 MO)): inactive; negative
- carcinogen call (Species: RAT, Strain/Sex: WISTAR/MALE, Route: ORAL, Dose: 0, 20, 1000, 50000 PPM IN DIET FOR 12 MO (STUDY DURATION: 13 MO), Dose: 0, 20, 1000, 50000 PPM IN DIET FOR 12 MO (STUDY DURATION: 13 MO)): inactive; negative

Compound: CC(COc1ccccc1)N(CCCl)Cc1ccccc1 (configuration not stated)
- carcinogen call (Species: MOUSE, Strain/Sex: B6C3F1/FEMALE, Route: INTRAPERITONEAL, Dose: 0, 12.5, 25 MG/KG 3/WK FOR 50 OR 52 WK, Dose: 0, 12.5, 25 MG/KG 3/WK FOR 50 OR 52 WK, Tumor Site: Type of Lesion: PERITONEAL CAVITY: SARCOMA): active; positive
- carcinogen call (Species: MOUSE, Strain/Sex: B6C3F1/MALE, Route: INTRAPERITONEAL, Dose: 0, 12.5, 25 MG/KG 3/WK FOR 50 OR 52 WK, Dose: 0, 12.5, 25 MG/KG 3/WK FOR 50 OR 52 WK, Tumor Site: Type of Lesion: PERITONEAL CAVITY: SARCOMA): active; positive
- carcinogen call (Species: MOUSE, Strain/Sex: STRAIN-A/MALE,FEMALE, Route: INTRAPERITONEAL, Dose: 40, 100, 200 MG/KG IN TRICAPRYLIN, Dose: 40, 100, 200 MG/KG IN TRICAPRYLIN, Tumor Site: Type of Lesion: LUNG: ADENOMA): active; positive
- carcinogen call (Species: RAT, Strain/Sex: SPRAGUE-DAWLEY/FEMALE, Route: INTRAPERITONEAL, Dose: 0, 5, 10 MG/KG 3/WK FOR 52 WKS, Dose: 0, 5, 10 MG/KG 3/WK FOR 52 WKS, Tumor Site: Type of Lesion: PERITONEAL CAVITY: SARCOMA): active; positive
- carcinogen call (Species: RAT, Strain/Sex: SPRAGUE-DAWLEY/MALE, Route: INTRAPERITONEAL, Dose: 0, 5, 10 MG/KG 3/WK FOR 52 WK, Dose: 0, 5, 10 MG/KG 3/WK FOR 52 WK, Tumor Site: Type of Lesion: PERITONEAL CAVITY: SARCOMA): active; positive

Compound: O[C@@H]1[C@@H]2O[C@@H]2c2c(cc3ccc4cccc5c6ccccc6c2c3c45)[C@H]1O
- carcinogen call (Species: MOUSE, Strain/Sex: ICR/FEMALE, Route: INTRAPERITONEAL, Dose: 0, 0.7 NMOL TOTAL DOSE INJECTED ON DAY 1 OF LIFE (STUDY DURATION: 35 WK), Tumor Site: Type of Lesion: LIVER: TUMOR, LUNG: TUMOR): active; positive
- carcinogen call (Species: MOUSE, Strain/Sex: ICR/FEMALE, Route: INTRAPERITONEAL, Dose: 0, 1 NMOL (TOTAL DOSE) ADMINISTERED IN DOSES OF 1/7, 2/7, AND 4/7 ON DAYS 1, 7, AND 15 OF LIFE, RESPECTIVELY (STUDY DURA, Tumor Site: Type of Lesion: LUNG: TUMOR): active; positive
- carcinogen call (Species: MOUSE, Strain/Sex: ICR/FEMALE, Route: INTRAPERITONEAL, Dose: 0, 1 NMOL TOTAL DOSE INJECTED IN DOSES OF 1/7 ON DAY 1, 2/7 ON DAY 8, AND 4/7 ON DAY 15 OF LIFE (STUDY DURATION: 35 WK), Tumor Site: Type of Lesion: LIVER: TUMOR, LUNG: TUMOR): active; positive
- carcinogen call (Species: MOUSE, Strain/Sex: ICR/MALE, Route: INTRAPERITONEAL, Dose: 0, 0.7 NMOL TOTAL DOSE INJECTED ON DAY 1 OF LIFE (STUDY DURATION: 35 WK), Tumor Site: Type of Lesion: LUNG: TUMOR): active; positive
- carcinogen call (Species: MOUSE, Strain/Sex: ICR/MALE, Route: INTRAPERITONEAL, Dose: 0, 1 NMOL (TOTAL DOSE) ADMINISTERED IN DOSES OF 1/7, 2/7, AND 4/7 ON DAYS 1, 7, AND 15 OF LIFE, RESPECTIVELY (STUDY DURA, Tumor Site: Type of Lesion: LUNG: TUMOR, LIVER: TUMOR): active; positive
- carcinogen call (Species: MOUSE, Strain/Sex: ICR/MALE, Route: INTRAPERITONEAL, Dose: 0, 1 NMOL TOTAL DOSE INJECTED IN DOSES OF 1/7 ON DAY 1, 2/7 ON DAY 8, AND 4/7 ON DAY 15 OF LIFE (STUDY DURATION: 35 WK), Tumor Site: Type of Lesion: LIVER: TUMOR, LUNG:TUMOR): active; positive
- carcinogen call (Species: RAT, Strain/Sex: CD-1/FEMALE, Route: INJECTION, Dose: 0, 0.2 UMOL IN 0.1 ML DMSO INJECTED BENEATH EACH OF THE 6 NIPPLES ON THE LEFT SIDE (STUDY DURATION: 41 WK), Tumor Site: Type of Lesion: MAMMARY GLAND: TUMOR): active; positive
- carcinogen call (Species: RAT, Strain/Sex: STRAIN-CD/FEMALE, Route: INJECTION, Dose: 0, 0.2 UMOL IN 0.1 ML DMSO INJECTED UNDER EACH OF THE 3 LEFT THORACIC NIPPLES FOLLOWED THE NEXT DAY BY SIMILAR TREATMENT, Tumor Site: Type of Lesion: MAMMARY GLAND: TUMOR): active; positive

Compound: CCNC(=O)N(C=O)CCN(C)C
- carcinogen call (Species: RAT, Strain/Sex: F344/FEMALE, Route: INTRAGASTRIC, Dose: 0, 25 MG/ML CORN OIL/ETHYL ACETATE (2:1) SOLUTION ADMINISTERED AS 0.2 ML 2/WK FOR 37 WK (STUDY DURATION: 102 WK), Tumor Site: Type of Lesion: NASAL CAVITY: ADENOMA): active; positive
- carcinogen call (Species: RAT, Strain/Sex: F344/MALE, Route: INTRAGASTRIC, Dose: 0, 25 MG/ML CORN OIL/ETHYL ACETATE (2:1) SOLUTION ADMINISTERED AS 0.2 ML 2/WK FOR 37 WK (STUDY DURATION: 102 WK)): inactive; negative

Compound: O=[N+]([O-])c1ccc2ccc3cc4ccccc4c4ccc1c2c34
- carcinogen call (Species: MOUSE, Strain/Sex: B6C3F1/MALE, Route: INTRAPERITONEAL, Dose: 0, 400 NMOL IN 35 µL DMSO ON DAYS 1 (1/7 TOTAL DOSE), 8 (2/7 TOTAL DOSE), AND 15 (4/7 TOTAL DOSE) AFTER BIRTH (STUDY DUR): inactive; negative
- carcinogen call (Species: RAT, Strain/Sex: F344/MALE, Route: SUBCUTANEOUS, Dose: 0, 500, 1000 UG SUSPENDED IN BEESWAX/TRICAPRYLIN (1:1) ONCE (STUDY DURATION: LIFETIME), Dose: 0, 500, 1000 UG SUSPENDED IN BEESWAX/TRICAPRYLIN (1:1) ONCE (STUDY DURATION: LIFETIME)): inactive; negative

Compound: CN(C)c1ccc2nc3ccc(=[N+](C)C)cc-3sc2c1
- carcinogen call (Species: Mouse, Strain/Sex: B6C3F1/Female, Route: Oral, Dose: 0, 2.5, 12.5, 25 mg/kg 5 d per wk for 2 yr, Dose: 0, 2.5, 12.5, 25 mg/kg 5 d per wk for 2 yr, Tumor Site: Type of Lesion: Lymphatic system: Malignant lymphomas (6/50; 4/50; 9/50; 12/50) (Marginal increase)): equivocal
- carcinogen call (Species: Mouse, Strain/Sex: B6C3F1/Male, Route: Oral, Dose: 0, 2.5, 12.5, 25 mg/kg 5 d per wk for 2 yr, Dose: 0, 2.5, 12.5, 25 mg/kg 5 d per wk for 2 yr, Tumor Site: Type of Lesion: Small intestine: Carcinomas (0/50; 1/50; 2/50; 4/50), Adenomas or carcinomas (1/50; 2/50; 4/50; 6/50) (incidences not st, Tumor Site: Type of Lesion: Small intestine: Carcinomas (0/50; 1/50; 2/50; 4/50), Adenomas or carcinomas (1/50; 2/50; 4/50; 6/50) (incidences not st): active; positive (for lymphoma only at high does) (ntp describes results as some evidenc
- carcinogen call (Species: Rat, Strain/Sex: F344/Female, Route: Oral, Dose: 0, 5, 25, 50 mg/kg 5 d per wk for 2 yr, Dose: 0, 5, 25, 50 mg/kg 5 d per wk for 2 yr): inactive; negative
- carcinogen call (Species: Rat, Strain/Sex: F344/Male, Route: Oral, Dose: 0, 5, 25, 50 mg/kg 5 d per wk for 2 yr, Dose: 0, 5, 25, 50 mg/kg 5 d per wk for 2 yr, Tumor Site: Type of Lesion: Pancreas: Pancreatic islet adenomas (4/50; 9/50; 12/50; 8/50), Pancreatic islet adenomas or carcinomas (4/50, 9/50, 14/5, Tumor Site: Type of Lesion: Pancreas: Pancreatic islet adenomas (4/50; 9/50; 12/50; 8/50), Pancreatic islet adenomas or carcinomas (4/50, 9/50, 14/5): active; positive (statistically significant only at 25 mg/kg dose) (ntp describes as som

From PubChem BioAssay AID1259411 (Chemical Carcinogenesis Research Information System (CCRIS), 2018)
